The source of these data is patent US7629320B2, “Nucleoside derivatives for treating hepatitis C virus infection” (SmithKline Beecham Corporation, priority 2002, dated 2009).

For series [1], the system named is HCV. Description: activity of Example 26 (test not stated; patent concerns anti-hepatitis C activity). Particulars: test not specified.
For series [2] the following is noted: patients treated at currently recommended doses; cited from earlier work.

As for `O=P(O)(O)OP(=O)(O)OP(=O)(O)OC[C@H]1O[C@@H](n2cnc3c(NO)ncnc32)[C@H](O)[C@@H]1O` [Example 26, 6-Hydroxylamino-9-β-D-ribofuranosylpurine 5′-Triphosphate], the “activity (stated in words)” value in series [1] is “inactive”. Take `NC(=O)c1ncn([C@@H]2O[C@H](CO)[C@@H](O)[C@H]2O)n1` [Ribavirin, 1-β-D-ribofuranosyl-1H-1,2,-4-triazole-3-carboxamide]: in series [2], the “patients with significant hemolysis” value is given as 10-20%.
